According to patent US10604527B2, “Pyrazine compounds for the treatment of hepatitis B infection” (Hoffmann-La Roche Inc., priority 2016, dated 2020):
pEC50: −log10 of the molar value.

System: HBV
Test: HBV inhibition assay in HepG2.2.15 cells (extracellular HBV DNA by qPCR)
Assay type: cell-based
Settings: Hepatitis B virus, 120 h, extracellular HBV DNA in culture supernatant by qPCR, five days after compound treatment
Experimental: HepG2.2.15 is a stably-transfected cell line containing the HBV genome. It is derived from the hepatoblastoma cell line Hep G2 (American Type Culture Collection, ATCC® HB-8065™) by the published procedures described in reference: M A Selles et al. Proc. Natl. Acad. Sci. USA 1987, 84, 1005-1009. The cell line was maintained in Dulbecco's modified Eagle's medium (DMEM)-F12 medium supplemented with 10% fetal bovine serum, 20 mM L-glutamine, 0.1 mM NEAA, 50 U/mL penicillin, 50 μg/mL streptomycin, and 0.3 mg/mL of G418.
HepG2.2.15 cells were seeded into 96-well plates at a density of 3×10^4 cells per well in 100 μL DMEM/F12 media (Life Science, Cat. #: 11320-033) supplemented with 2.5% fetal bovine serum, 20 mM L-glutamine, 0.1 mM NEAA, 50 U/mL penicillin, 50 U/mL streptomycin and cultured overnight at 37° C. The test compounds were serially half-log diluted in DMSO, then diluted 100 times in culture media. 100 μL diluted solution of tested compounds were added into the plates to reach 0.5% final concentration of DMSO in every well. Five days after compound treatment, culture supernatant was collected for further analysis.
For quantitative PCR detection of extracellular HBV DNA, culture supernatant was processed by 500 μg/mL Proteinase K (Sigma, Cat. #: P2308) digestion at 50° C. for 1 hour. After heat inactivation of the enzyme at 95° C. for 15 minutes, the samples were subjected to HBV DNA quantification by qPCR. The effective compound concentration at which HBV replication inhibited by 50% (EC50) was determined.

Row | SMILES | pEC50
1 | CC(C)S(=O)(=O)c1cnn2c1CN(C(=O)Nc1cc(F)c(F)c(F)c1)[C@@H](C)C2 [Example 20, (6S)-3-isopropylsulfonyl-6-methyl-N-(3,4,5-trifluorophenyl)-6,7-dihydro-4H-pyrazolo[1,5-a]pyrazine-5-carboxamide] | 7.68
2 | C[C@H]1Cn2ncc(S(=O)(=O)C3CCC(O)C3)c2CN1C(=O)Nc1cc(F)c(F)c(F)c1 (stereo partly drawn) [Example 34, (6S)-3-(3-hydroxycyclopentyl)sulfonyl-6-methyl-N-(3,4,5-trifluorophenyl)-6,7-dihydro-4H-pyrazolo[1,5-a]pyrazine-5-carboxamide] | 7.02
3 | C[C@H]1Cn2ncc(Oc3ccc(F)cn3)c2CN1C(=O)Nc1cc(F)c(F)c(F)c1 [Example 9, (6S)-3-[(5-fluoro-2-pyridyl)oxy]-6-methyl-N-(3,4,5-trifluorophenyl)-6,7-dihydro-4H-pyrazolo[1,5-a]pyrazine-5-carboxamide] | 6.62
4 | C[C@H]1Cn2ncc(OC3CCOCC3)c2CN1C(=O)Nc1ccc(F)c(Cl)c1 [Example 4, (6S)-N-(3-chloro-4-fluoro-phenyl)-6-methyl-3-tetrahydropyran-4-yloxy-6,7-dihydro-4H-pyrazolo[1,5-a]pyrazine-5-carboxamide] | 6.97
5 | C[C@H]1Cn2ncc(S(=O)(=O)N3CCCC3)c2CN1C(=O)Nc1ccc(F)c(Cl)c1 [Example 23, (6S)-N-(3-chloro-4-fluoro-phenyl)-6-methyl-3-pyrrolidin-1-ylsulfonyl-6,7-dihydro-4H-pyrazolo[1,5-a]pyrazine-5-carboxamide] | 7.11
6 | C[C@H]1Cn2ncc(OC3CCNC3=O)c2CN1C(=O)Nc1ccc(F)c(Cl)c1 (stereo partly drawn) [Example 5, (6S)-N-(3-chloro-4-fluoro-phenyl)-6-methyl-3-(2-oxopyrrolidin-3-yl)oxy-6,7-dihydro-4H-pyrazolo[1,5-a]pyrazine-5-carboxamide] | 6.36
7 | CC(C)NS(=O)(=O)c1cnn2c1CN(C(=O)Nc1ccc(F)c(Cl)c1)[C@@H](C)C2 [Example 25, (6S)-N-(3-chloro-4-fluoro-phenyl)-3-(isopropylsulfamoyl)-6-methyl-6,7-dihydro-4H-pyrazolo[1,5-a]pyrazine-5-carboxamide] | 7.09
8 | CC(C)Oc1cnn2c1CN(C(=O)Nc1ccc(F)c(Cl)c1)C(C)C2 (stereo not shown) [Example 1, N-(3-chloro-4-fluoro-phenyl)-3-isopropoxy-6-methyl-6,7-dihydro-4H-pyrazolo[1,5-a]pyrazine-5-carboxamide] | 7.74
9 | C[C@H]1Cn2ncc(S(=O)(=O)N[C@H]3CCOC3)c2CN1C(=O)Nc1ccc(F)c(Cl)c1 [Example 26, (6S)-N-(3-chloro-4-fluoro-phenyl)-6-methyl-3-[[(3S)-tetrahydrofuran-3-yl]sulfamoyl]-6,7-dihydro-4H-pyrazolo[1,5-a]pyrazine-5-carboxamide] | 6.44
10 | C[C@H]1Cn2ncc(S(=O)(=O)N(C)C)c2CN1C(=O)Nc1ccc(F)c(Cl)c1 [Example 24, (6S)-N-(3-chloro-4-fluoro-phenyl)-3-(dimethylsulfamoyl)-6-methyl-6,7-dihydro-4H-pyrazolo[1,5-a]pyrazine-5-carboxamide] | 6.85
11 | C[C@H]1Cn2ncc(S(=O)(=O)N3CC[C@@H](O)C3)c2CN1C(=O)Nc1cc(F)c(F)c(F)c1 [Example 29, (6S)-3-[(3R)-3-hydroxypyrrolidin-1-yl]sulfonyl-6-methyl-N-(3,4,5-trifluorophenyl)-6,7-dihydro-4H-pyrazolol[1,5-a]pyrazine-5-carboxamide] | 6.84
12 | CC1Cn2ncc(S(=O)(=O)C3CCOC3)c2CN1C(=O)Nc1ccc(F)c(Cl)c1 (stereo not shown) [Example 10, N-(3-chloro-4-fluoro-phenyl)-6-methyl-3-tetrahydrofuran-3-ylsulfonyl-6,7-dihydro-4H-pyrazolo[1,5-a]pyrazine-5-carboxamide] | 7.49
13 | C[C@H]1Cn2ncc(OC3CCN(S(C)(=O)=O)CC3)c2CN1C(=O)Nc1ccc(F)c(Cl)c1 [Example 6, (6S)-N-(3-chloro-4-fluoro-phenyl)-6-methyl-3-[(1-methylsulfonyl-4-piperidyl)oxy]-6,7-dihydro-4H-pyrazolo[1,5-a]pyrazine-5-carboxamide] | 6.51
14 | CC(C)S(=O)(=O)c1cnn2c1CN(C(=O)Nc1ccnc(Cl)c1)[C@@H](C)C2 [Example 18, (6S)-N-(2-chloro-4-pyridyl)-3-isopropylsulfonyl-6-methyl-6,7-dihydro-4H-pyrazolo[1,5-a]pyrazine-5-carboxamide] | 6.33
15 | C[C@H]1Cn2ncc(N(C)C(=O)OCc3ccccc3)c2CN1C(=O)Nc1cc(F)c(F)c(F)c1 [Example 37, Benzyl N-methyl-N-[(6S)-6-methyl-5-[(3,4,5-trifluorophenyl)carbamoyl]-6,7-dihydro-4H-pyrazolo[1,5-a]pyrazin-3-yl]carbamate] | 6.32
16 | C[C@H]1Cn2ncc(S(=O)(=O)C3CC3)c2CN1C(=O)Nc1cc(F)c(F)c(F)c1 [Example 22, (6S)-3-cyclopropylsulfonyl-6-methyl-N-(3,4,5-trifluorophenyl)-6,7-dihydro-4H-pyrazolo[1,5-a]pyrazine-5-carboxamide] | 7.11
17 | CC1Cn2ncc(S(=O)(=O)C3CCCC3)c2CN1C(=O)Nc1ccc(F)c(Cl)c1 (stereo not shown) [Example 11, N-(3-chloro-4-fluoro-phenyl)-3-cyclopentylsulfonyl-6-methyl-6,7-dihydro-4H-pyrazolo[1,5-a]pyrazine-5-carboxamide] | 7.96
18 | C[C@H]1Cn2ncc(N(C)S(=O)(=O)C3CC3)c2CN1C(=O)Nc1cc(F)c(F)c(F)c1 [Example 41, (6S)-3-[cyclopropylsulfonyl(methyl)amino]-6-methyl-N-(3,4,5-trifluorophenyl)-6,7-dihydro-4H-pyrazolo[1,5-a]pyrazine-5-carboxamide] | 7.07
19 | C[C@H]1Cn2ncc(S(=O)(=O)N3CC(F)(F)C3)c2CN1C(=O)Nc1cc(F)c(F)c(F)c1 [Example 31, (6S)-3-(3,3-difluoroazetidin-1-yl)sulfonyl-6-methyl-N-(3,4,5-trifluorophenyl)-6,7-dihydro-4H-pyrazolo[1,5-a]pyrazine-5-carboxamide] | 7.66
20 | CC(C)S(=O)(=O)c1cnn2c1CN(C(=O)Nc1ccnc(C(F)F)c1)[C@@H](C)C2 [Example 21, (6S)-N-[2-(difluoromethyl)-4-pyridyl]-3-isopropylsulfonyl-6-methyl-6,7-dihydro-4H-pyrazolo[1,5-a]pyrazine-5-carboxamide] | 6.57
21 | C[C@H]1Cn2ncc(S(=O)(=O)N3CCC(F)(F)C3)c2CN1C(=O)Nc1cc(F)c(F)c(F)c1 [Example 28, (6S)-3-(3,3-difluoropyrrolidin-1-yl)sulfonyl-6-methyl-N-(3,4,5-trifluorophenyl)-6,7-dihydro-4H-pyrazolo[1,5-a]pyrazine-5-carboxamide] | 6.77
22 | CC(=O)N(C)c1cnn2c1CN(C(=O)Nc1cc(F)c(F)c(F)c1)[C@@H](C)C2 [Example 38, (6S)-3-[acetyl(methyl)amino]-6-methyl-N-(3,4,5-trifluorophenyl)-6,7-dihydro-4H-pyrazolo[1,5-a]pyrazine-5-carboxamide] | 6.34
23 | C[C@H]1Cn2ncc(S(=O)(=O)C3CCCC3)c2CN1C(=O)Nc1ccnc(Cl)c1 [Example 19, (6S)-N-(2-chloro-4-pyridyl)-3-cyclopentylsulfonyl-6-methyl-6,7-dihydro-4H-pyrazolo[1,5-a]pyrazine-5-carboxamide] | 6.87
24 | C[C@H]1Cn2ncc(S(=O)(=O)N[C@@H]3CCOC3)c2CN1C(=O)Nc1cc(F)c(F)c(F)c1 [Example 30, (6S)-6-methyl-3-[[(3R)-tetrahydrofuran-3-yl]sulfamoyl]-N-(3,4,5-trifluorophenyl)-6,7-dihydro-4H-pyrazolo[1,5-a]pyrazine-5-carboxamide] | 6.81
25 | C[C@H]1Cn2ncc(S(=O)(=O)C3CCOC3)c2CN1C(=O)Nc1ccc(F)c(Cl)c1 (stereo partly drawn) [Example 14, (6S)-N-(3-chloro-4-fluoro-phenyl)-6-methyl-3-tetrahydrofuran-3-ylsulfonyl-6,7-dihydro-4H-pyrazolo[1,5-a]pyrazine-5-carboxamide] | 7.26
26 | C[C@H]1Cn2ncc(S(=O)(=O)C3CCOC3)c2CN1C(=O)Nc1ccnc(Cl)c1 (stereo partly drawn) [Example 17, (6S)-N-(2-chloro-4-pyridyl)-6-methyl-3-tetrahydrofuran-3-ylsulfonyl-6,7-dihydro-4H-pyrazolo[1,5-a]pyrazine-5-carboxamide] | 6.06
27 | CC1Cn2ncc(S(=O)(=O)C(C)C)c2CN1C(=O)Nc1ccc(F)c(Cl)c1 (stereo not shown) [Example 12, N-(3-chloro-4-fluoro-phenyl)-3-isopropylsulfonyl-6-methyl-6,7-dihydro-4H-pyrazolo[1,5-a]pyrazine-5-carboxamide] | 7.96
28 | C[C@H]1Cn2ncc(OC3CCOC3)c2CN1C(=O)Nc1ccc(F)c(Cl)c1 (stereo partly drawn) [Example 3, (6S)-N-(3-chloro-4-fluoro-phenyl)-6-methyl-3-tetrahydrofuran-3-yloxy-6,7-dihydro-4H-pyrazolo[1,5-a]pyrazine-5-carboxamide] | 6.82
